We go through 30 compounds from ChEMBL document CHEMBL1147462, “Exploring QSAR of melatonin receptor ligand benzofuran derivatives using E-state index” (Bioorg Med Chem Lett, 2004).

In experiment [1] the target is T1, Melatonin receptor type 1B (Homo sapiens) (UniProt P49286).
T1 sequence (whole entry): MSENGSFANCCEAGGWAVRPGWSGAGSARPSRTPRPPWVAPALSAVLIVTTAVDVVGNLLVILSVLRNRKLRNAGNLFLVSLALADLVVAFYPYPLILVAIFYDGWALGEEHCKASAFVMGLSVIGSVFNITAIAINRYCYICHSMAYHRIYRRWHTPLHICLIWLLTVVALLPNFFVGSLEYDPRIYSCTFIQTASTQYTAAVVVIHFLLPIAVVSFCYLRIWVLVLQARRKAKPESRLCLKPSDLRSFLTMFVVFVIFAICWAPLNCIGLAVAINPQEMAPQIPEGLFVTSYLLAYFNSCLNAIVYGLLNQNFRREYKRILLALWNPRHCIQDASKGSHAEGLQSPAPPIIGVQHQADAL
The experiment is described as follows: Binding affinity against melatonin receptor type 1B.

In experiment [2] the target is Melatonin receptor type 1A (Homo sapiens) (UniProt P48039). The experiment in a line: Binding affinity against Melatonin receptor type 1A.
Chain of Melatonin receptor type 1A (Homo sapiens) (P48039 whole entry): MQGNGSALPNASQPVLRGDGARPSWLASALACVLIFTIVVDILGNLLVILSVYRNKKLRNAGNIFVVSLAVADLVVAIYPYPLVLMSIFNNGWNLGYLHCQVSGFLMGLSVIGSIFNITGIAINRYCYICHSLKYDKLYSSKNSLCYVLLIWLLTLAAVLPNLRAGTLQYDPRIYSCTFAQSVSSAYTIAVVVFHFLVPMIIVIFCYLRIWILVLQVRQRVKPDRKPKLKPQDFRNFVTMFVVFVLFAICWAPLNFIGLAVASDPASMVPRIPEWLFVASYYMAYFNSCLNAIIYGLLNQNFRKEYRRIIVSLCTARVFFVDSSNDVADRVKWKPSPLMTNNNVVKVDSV
In experiment [3] the target is T2, Melatonin receptor (Homo sapiens) (UniProt P48039+P49286). The experiment in a line: Selectivity (pC2-PC1) was determined. It is filed as protein assay.
T2 sequence (P48039 whole entry, looked up, one chain of several): as the sequence (P48039 whole entry) above
Experiment [4] concerns the target T2, Melatonin receptor (Homo sapiens). The experiment in a line: Binding affinity against melatonin (MT1) receptor (pC1). It is filed as protein assay.

As to `CCc1ccc2oc(Cc3ccccc3)c(CCNC(C)=O)c2c1`, the pC1 in experiment [1] came out at 2.08; in experiment [2] it was 1.19. The same compound gave a Selectivity in experiment [3] of 0.893.

Regarding `CCCCCOc1ccc2oc(Cc3ccccc3)c(CCNC(C)=O)c2c1`, the pC1 in experiment [1] is 2.01; in experiment [2], 1.37. Besides, in experiment [3], the Selectivity came out at 0.642.

As to `C=CC(=O)NCCc1c(-c2ccccc2)oc2ccc(OC)cc12`, the pC1 amounted to 5 in experiment [1] and 4.7 in experiment [2]. Moreover, the Selectivity in experiment [3] is 0.301.

Consider `CC(=O)NCCc1c(Cc2ccccc2)oc2ccccc12`, for which the figures for the pC1 in experiment [1] and in experiment [2] were 1.98 and 0.81, respectively. Moreover, the Selectivity in experiment [3] is 1.17.

`COc1ccc2oc(Cc3cccc(Cl)c3)c(CCNC(C)=O)c2c1`: the pC1 in experiment [1] was found to be 3.66; in experiment [2], 2.14. The Selectivity in experiment [3] was 1.51.

Take `CCCC(=O)NCCc1c(Cc2ccccc2)oc2ccc(OC)cc12`: the results for the pC1 in experiment [1] and in experiment [2] were 3.7 and 2.48, respectively. The compound further came in with a Selectivity in experiment [3] of 1.22.

`COc1ccc2oc(Cc3ccccc3)c(CCNC(=O)c3ccco3)c2c1`: the values for the pC1 in experiment [1] and in experiment [2] were 1.44 and 0.156, respectively. For the same compound, the Selectivity in experiment [3] was found to be 1.28.

`CCCCCCOc1ccc2oc(Cc3ccccc3)c(CCNC(C)=O)c2c1`: the figures for the pC1 in experiment [1] and in experiment [2] were 2.49 and 2.09, respectively. The Selectivity in experiment [3] amounted to 0.407.

Take `COc1ccc2oc(-c3ccccc3)c(CCNC(C)=O)c2c1`: the pC1 in experiment [1] is 4.7; in experiment [2], 5. The Selectivity in experiment [3] is -0.301.

`CCc1ccc2oc(Cc3cccc(OC)c3)c(CCNC(C)=O)c2c1`: the pC1 in experiment [1] is 1.77; in experiment [2], 0.541. This compound had a Selectivity in experiment [3] of 1.23.

Turning to `COc1ccc2oc(Cc3cc(C(F)(F)F)cc(C(F)(F)F)c3)c(CCNC(C)=O)c2c1`, the pC1 in experiment [1] was 0.469; in experiment [2] it was 0.322. The Selectivity in experiment [3] turned out to be 0.147.

For the compound `COc1ccc2oc(-c3ccccc3)c(CCNC(=O)Cc3ccco3)c2c1`, the pC1 is 0.442 in experiment [1] and 1.89 in experiment [2]. This compound had a Selectivity in experiment [3] of -1.45.

As for `COc1ccc2oc(CC3CCCCC3)c(CCNC(C)=O)c2c1`, the pC1 in experiment [1] came to 2.6; in experiment [2], 1.18. Further, the Selectivity in experiment [3] came to 1.43.

As for `CC(=O)NCCc1c(Cc2ccccc2)oc2ccc(O)cc12`, the pC1 in experiment [1] was found to be 1.1; in experiment [2] it was 0.245. The compound further displayed a Selectivity in experiment [3] of 0.852.

Take `CNC(=O)NCCc1c(Cc2ccccc2)oc2ccc(OC)cc12`: the pC1 was found to be 3.46 in experiment [1] and 2.27 in experiment [2]. Further, the Selectivity in experiment [3] is 1.19.

Regarding `C/C=C/C(=O)NCCc1c(-c2ccccc2)oc2ccc(OC)cc12`, the pC1 came to 3.68 in experiment [1] and 3 in experiment [2]. Moreover, in experiment [3], the Selectivity came out at 0.682.

With `COc1ccc2oc(Cc3ccccc3)c(CCNC(=O)CI)c2c1`, the figures for the pC1 in experiment [1] and in experiment [2] were 3.39 and 2.06, respectively. This compound displayed a Selectivity in experiment [3] of 1.32.

As to `C=CC(=O)NCCc1c(Cc2cccc(OC)c2)oc2ccc(OC)cc12`, the pC1 in experiment [1] is 2.56; in experiment [2], 1.26. For the same compound, the Selectivity in experiment [3] came out at 1.3.

As to `COc1ccc2oc(Cc3cccc(C(F)(F)F)c3)c(CCNC(C)=O)c2c1`, the results for the pC1 in experiment [1] and in experiment [2] were 2.93 and 1.1, respectively. For the same compound, the Selectivity in experiment [3] is 1.83.

As to `C=CCC(=O)NCCc1c(-c2ccccc2)oc2ccc(OC)cc12`, the values for the pC1 in experiment [1] and in experiment [2] were 4.7 and 5, respectively. In addition, the Selectivity in experiment [3] was -0.301.

Take `COc1ccc(Cc2oc3ccc(OC)cc3c2CCNC(C)=O)cc1`: the pC1 stood at 3.3 in experiment [1] and 1.62 in experiment [2]. Further, the Selectivity in experiment [3] was determined as 1.68.

In the case of `COc1ccc2oc(Cc3c(Cl)cccc3Cl)c(CCNC(C)=O)c2c1`, the pC1 in experiment [1] worked out at 1.89; in experiment [2], 1.07. Further, the Selectivity in experiment [3] was found to be 0.82.

With `COc1ccc2oc(CCCc3ccccc3)c(CCNC(C)=O)c2c1`, the figures for the pC1 in experiment [1] and in experiment [2] were 2.82 and 1.5, respectively. The same compound yielded a Selectivity in experiment [3] of 1.32.

Consider `COc1ccc2oc(Cc3ccccc3OC)c(CCNC(C)=O)c2c1`, for which the values for the pC1 in experiment [1] and in experiment [2] were 3.47 and 1.84, respectively. This compound also gave a Selectivity in experiment [3] of 2.1.

For the compound `C=CC(=O)NCCc1c(Cc2ccccc2)oc2ccc(OC)cc12`, the pC1 in experiment [1] was determined as 3.16; in experiment [2], 1.27. The Selectivity in experiment [3] was determined as 1.89.

As for `C=CCC(=O)NCCc1c(Cc2ccccc2)oc2ccc(OC)cc12`, the pC1 was 4.22 in experiment [1] and 2.46 in experiment [2]. Also, the Selectivity in experiment [3] was found to be 1.77.

Take `CNC(=O)NCCc1c(-c2ccccc2)oc2ccc(OC)cc12`: the pC1 in experiment [4] and in experiment [1] was 4.4 throughout. This compound showed a Selectivity in experiment [3] of 0.

`COc1ccc2oc(Cc3cccc(F)c3)c(CCNC(C)=O)c2c1`: the pC1 was found to be 3.64 in experiment [1] and 3.12 in experiment [2]. This compound returned a Selectivity in experiment [3] of 0.513.

As to `COc1cccc(Cc2oc3ccccc3c2CCNC(C)=O)c1`, the pC1 in experiment [1] stood at 1.73; in experiment [2], 0.64. In experiment [3], the Selectivity is 1.09.

`COc1cccc(Cc2oc3ccc(OC)cc3c2CCNC(C)=O)c1` gave a pC1 in experiment [1] of 3.5. In addition, the Selectivity in experiment [3] is 2.1.
